The values that follow come from BindingDB's records for doi:10.1021/bi3009278 (University of Wisconsin, 2012).

The target in the experiment is Lysine-specific demethylase 5A (Homo sapiens, UniProt P29375). Kind of experiment: Fluorescence Polarization Binding Assay. For orientation: Fluorescence polarisation rises when a labelled molecule tumbles more slowly, as on binding a larger partner.
Lysine-specific demethylase 5A, sequence (P29375 whole entry): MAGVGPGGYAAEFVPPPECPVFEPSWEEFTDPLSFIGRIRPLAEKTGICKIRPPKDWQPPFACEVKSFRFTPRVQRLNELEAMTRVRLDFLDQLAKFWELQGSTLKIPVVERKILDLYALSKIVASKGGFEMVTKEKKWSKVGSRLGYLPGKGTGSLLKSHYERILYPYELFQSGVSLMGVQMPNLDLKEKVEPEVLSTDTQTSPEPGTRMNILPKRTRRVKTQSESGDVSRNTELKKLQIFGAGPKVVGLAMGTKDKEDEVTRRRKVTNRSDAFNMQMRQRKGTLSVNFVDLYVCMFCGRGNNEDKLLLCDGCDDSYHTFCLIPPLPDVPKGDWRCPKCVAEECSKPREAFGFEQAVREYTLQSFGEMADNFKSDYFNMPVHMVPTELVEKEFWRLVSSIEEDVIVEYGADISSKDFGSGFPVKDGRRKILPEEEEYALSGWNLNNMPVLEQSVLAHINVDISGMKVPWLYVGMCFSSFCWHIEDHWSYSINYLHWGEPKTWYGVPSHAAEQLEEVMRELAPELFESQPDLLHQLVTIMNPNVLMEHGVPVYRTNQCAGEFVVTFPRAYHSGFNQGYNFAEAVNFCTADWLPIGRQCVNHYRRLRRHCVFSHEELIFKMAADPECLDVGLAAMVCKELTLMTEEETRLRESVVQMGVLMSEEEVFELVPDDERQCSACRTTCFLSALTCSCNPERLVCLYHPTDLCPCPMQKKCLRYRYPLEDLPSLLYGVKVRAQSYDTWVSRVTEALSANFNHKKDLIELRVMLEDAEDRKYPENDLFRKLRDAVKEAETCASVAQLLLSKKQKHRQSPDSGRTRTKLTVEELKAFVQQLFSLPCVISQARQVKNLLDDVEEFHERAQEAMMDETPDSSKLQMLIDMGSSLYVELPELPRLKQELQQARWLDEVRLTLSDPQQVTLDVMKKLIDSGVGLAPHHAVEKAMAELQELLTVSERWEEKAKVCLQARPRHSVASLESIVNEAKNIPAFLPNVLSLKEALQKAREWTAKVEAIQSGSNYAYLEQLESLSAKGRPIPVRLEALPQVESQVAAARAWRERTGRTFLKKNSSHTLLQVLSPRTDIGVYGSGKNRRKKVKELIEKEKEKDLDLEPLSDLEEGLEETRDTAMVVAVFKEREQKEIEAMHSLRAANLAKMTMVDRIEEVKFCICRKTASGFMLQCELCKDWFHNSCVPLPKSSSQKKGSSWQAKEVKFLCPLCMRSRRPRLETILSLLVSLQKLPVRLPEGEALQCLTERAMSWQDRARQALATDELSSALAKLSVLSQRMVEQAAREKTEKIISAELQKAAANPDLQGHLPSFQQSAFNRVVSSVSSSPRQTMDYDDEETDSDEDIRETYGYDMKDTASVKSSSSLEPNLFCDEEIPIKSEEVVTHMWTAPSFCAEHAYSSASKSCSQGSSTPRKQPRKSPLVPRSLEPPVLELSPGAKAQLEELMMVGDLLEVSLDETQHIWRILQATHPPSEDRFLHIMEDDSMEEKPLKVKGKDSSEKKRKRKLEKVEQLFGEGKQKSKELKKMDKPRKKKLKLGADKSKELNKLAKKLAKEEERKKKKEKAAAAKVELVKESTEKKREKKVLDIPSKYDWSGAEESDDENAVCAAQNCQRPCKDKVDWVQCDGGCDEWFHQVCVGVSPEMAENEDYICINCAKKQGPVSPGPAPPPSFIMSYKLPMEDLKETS

The term IC50 denotes the midpoint of a concentration-inhibition curve. High values mean a need for much substance, low ones inhibition by little substance. On to `CCCCc1oc2ccccc2c1C(=O)c1cc(I)c(OCCN)c(I)c1` [Di-N-desethylaminodarone], for which the IC50 was found to be 26 µM. This lies in the double-digit micromolar range.

The compound `CCCCc1oc2ccccc2c1C(=O)c1cc(I)c(OCC[N+](C)(C)C)c(I)c1` [WAG-003] registered a half-maximal inhibitory concentration (IC50) of 30 µM. This IC50 and that of the compound before are within 1.5-fold of each other.
